In patent publication US4775675A, “Thiazolidinecarboxylic acid derivatives and treatment of liver diseases therewith” (Biogal Gyogyszergyar, priority 1985, dated 1988):
Where a name gives a salt, the structure may show the parent alone.

Columns and labels:
CFY male rats [1] = assay: liver protecting effect: galactosamine damage followed by treatment with the compounds under test (histology); type: in vivo, rat (CFY male); details: galactosamine 0.75 g/kg i.p., compound i.p. 6 hours later
CFY male rats [2] = assay: liver protecting effect: carbon tetrachloride intoxication followed by treatment with the compounds under test; type: in vivo, rat (CFY male); details: CCl4 1.5 g/kg orally, compound 100 mg/kg i.p. after 6 hours; for TG (triglyceride content of the liver): control 40 ± 8, CCl4 alone 86 ± 17; for SGOT activity: control 81.7 ± 16, CCl4 alone 269.0 ± 14
Description: (§1) In order to investigate the liver protecting effect, the compounds were tested at CFY male rats with 200 to 240 g of body-weight after a starvation for 18 hours.
(§2) An experimental liver damage was elicited by using carbon tetrachloride, allyl alcohol or galactosamine. The activity of the serum glutamate-oxalacetate-transaminase (SGOT), the triglyceride (TG) content of the liver as well as the histological picture of the liver were studied.
(§3) Liver damaging agents (1.5 g/kg of body-weight of carbon tetrachloride orally; 0.75 g/kg of body-weight of galactosamine intraperitoneally) were administered to the starved animals, whereupon the animals received the compound under test in a dose of 100 mg/kg of body-weight intraperitoneally after 6 hours.
(a) The results of the carbon tetrachloride intoxication followed by treatment with the compounds under test are as follows: […]

[3] = acute toxicity investigation (LD50); details: mouse, in vivo, mice
Description: The compounds prepared were subjected to acute toxicity investigations. For this purpose, the compounds under test were dissolved in an aqueous sodium carbonate solution and administered intraperitoneally (i.p.) or intravenously (i.v.) to the animals (40 days old CFLP female mice).
Some characteristic LD50 values of the compounds of the invention are as follows: […]

CFY male rats [4] = assay: liver protecting effect: allyl alcohol intoxication followed by treatment with the compounds under test; type: in vivo, rat (CFY male); details: compound 100 mg/kg of body-weight, after 24 hours, before 1.81±0.43, allyl alcohol 4.16±1.63
Description: as §1, §2, §3
(b) The results of the allyl alcohol intoxication followed by treatment with the compounds under test are as follows:
After 24 hours, the animals were killed and the activity of the serum glutamate-pyruvate-transaminase (SGPT) was determined. After a treatment with allyl alcohol, the SGPT level was increased from a value of 1.81±0.43 μmoles/ml.h. to 4.16±1.63 μmoles/ml. h. This increase was diminished to 2.84±0.97 μmoles/ml.h. by a treatment with a 100 mg/kg of body-weight dose of the compound described in Example 1.

CC1(C)SC(c2ccco2)N[C@H]1C(=O)O (stereo partly drawn) [Example 2, 5,5-Dimethyl-2-(2-furyl)-thiazolidine-4(S)-carboxylic acid]
number of focally appearing parenchymal necroses (CFY male rats [1]): diminished | severity of the alterations characteristic of the galactosamine hepatitis (CFY male rats [1]): diminished | TG (triglyceride content of the liver) (CFY male rats [2]): 84 ± 6 µg/mg protein | SGOT activity (CFY male rats [2]): 229.0 ± 14 unit/liter

CC1(C)SC(c2ccncc2)N[C@H]1C(=O)O (stereo partly drawn) [Example 6, 5,5-Dimethyl-2-(4-pyridyl)-thiazolidine-4(S)-carboxylic acid]
TG (triglyceride content of the liver) (CFY male rats [2]): 88 ± 20 µg/mg protein | SGOT activity (CFY male rats [2]): 250.0 ± 13 unit/liter

CC(=O)N1[C@@H](C(=O)O)C(C)(C)S[C@H]1c1ccccc1 [Example 27, 3-Acetyl-5,5-dimethyl-2(S)-phenylthiazolidine-4(S)-carboxylic acid]
LD50 ([3]; ip): 1500 mg/kg

Oc1cc(O)c2c(c1)O[C@H](c1ccc(O)c(O)c1)[C@@H](O)C2 [catergen, (+)2-(3,4-dihydroxyphenyl)-3,5,7-chromanetriol, reference compound]
TG (triglyceride content of the liver) (CFY male rats [2]): 77 ± 7 µg/mg protein | SGOT activity (CFY male rats [2]): 241.0 ± 23 unit/liter

Cn1cccc1C1N[C@@H](C(=O)O)C(C)(C)S1 (stereo partly drawn) [Example 4, 5,5-Dimethyl-2-(N-methyl-2-pyrrolyl)thiazolidine-4(S)-carboxylic acid]
TG (triglyceride content of the liver) (CFY male rats [2]): 114 ± 24 µg/mg protein | SGOT activity (CFY male rats [2]): 241.0 ± 21 unit/liter

CC1(C)SC(c2ccc3c(c2)CCC3)N[C@H]1C(=O)O (stereo partly drawn) [Example 8, 5,5-Dimethyl-2-(5-indanyl)-thiazolidine-4(S)-carboxylic acid]
TG (triglyceride content of the liver) (CFY male rats [2]): 76 ± 10 µg/mg protein | SGOT activity (CFY male rats [2]): 234.0 ± 23 unit/liter

CC1(C)SC(c2ccc([N+](=O)[O-])o2)N[C@H]1C(=O)O (stereo partly drawn) [Example 1, 5,5-Dimethyl-2-(5-nitro-2-furyl)-thiazolidine-4(S)-carboxylic acid]
LD50 ([3]; iv): 2190 mg/kg | number of focally appearing parenchymal necroses (CFY male rats [1]): diminished | severity of the alterations characteristic of the galactosamine hepatitis (CFY male rats [1]): diminished | TG (triglyceride content of the liver) (CFY male rats [2]): 51 ± 15 µg/mg protein | SGOT activity (CFY male rats [2]): 224.0 ± 14 unit/liter | SGPT level (activity of the serum glutamate-pyruvate-transaminase) (CFY male rats [4]): 2.84 ± 0.97 µmol/mL/h

CC(=O)N1[C@@H](C(=O)O)C(C)(C)S[C@H]1c1ccc([N+](=O)[O-])o1 [Example 30, 3-Acetyl-5,5-dimethyl-2(S)-(5-nitro-2-furyl)-thiazolidine-4(S)-carboxylic acid]
LD50 ([3]; ip): 2500 mg/kg

CC1(C)SC(c2cc3ccccc3o2)N[C@H]1C(=O)O (stereo partly drawn) [Example 7, 2-(2-Benzofuryl)-5,5-dimethylthiazolidine-4(S)-carboxylic acid]
TG (triglyceride content of the liver) (CFY male rats [2]): 61 ± 13 µg/mg protein | SGOT activity (CFY male rats [2]): 224.0 ± 14 unit/liter

CC(=O)N1[C@@H](c2ccc(Cl)cc2)SC(C)(C)[C@@H]1C(=O)O [Example 22, 3-Acetyl-2(R)-(4-chlorophenyl)-5,5-dimethylthiazolidine-4(S)-carboxylic acid]
LD50 ([3]; ip): 550 mg/kg

CC1(C)SC(c2cccnc2)N[C@H]1C(=O)O (stereo partly drawn) [Example 5, 5,5-Dimethyl-2-(3-pyridyl)-thiazolidine-4(S)-carboxylic acid]
TG (triglyceride content of the liver) (CFY male rats [2]): 61 ± 14 µg/mg protein | SGOT activity (CFY male rats [2]): 243.0 ± 21 unit/liter

CSc1ccc(C2N[C@@H](C(=O)O)C(C)(C)S2)cc1 (stereo partly drawn) [Example 11, 5,5-Dimethyl-2-(4-methylmercaptophenyl)-thiazolidine-4(S)-carboxylic acid]
TG (triglyceride content of the liver) (CFY male rats [2]): 70 ± 14 µg/mg protein | SGOT activity (CFY male rats [2]): 235.0 ± 19 unit/liter

CC1(C)SC(c2ccc(F)cc2)N[C@H]1C(=O)[O-].[K+] (stereo partly drawn) [Example 10, 5,5-Dimethyl-2-(4-fluorophenyl)-thiazolidine-4(S)-carboxylic acid and potassium salt]
TG (triglyceride content of the liver) (CFY male rats [2]): 81 ± 11 µg/mg protein | SGOT activity (CFY male rats [2]): 227.0 ± 40 unit/liter

CC1(C)SC(CO)N[C@H]1C(=O)O (stereo partly drawn) [Example 14, 5,5-Dimethyl-2-hydroxymethylthiazolidine-4(S)-carboxylic acid]
LD50 ([3]; ip): 5000 mg/kg

CC1(C)SC(c2cccc([N+](=O)[O-])c2)N[C@H]1C(=O)O (stereo partly drawn) [Example 9, 5,5-Dimethyl-2-(3-nitrophenyl)-thiazolidine-4(S)-carboxylic acid magnesium salt]
TG (triglyceride content of the liver) (CFY male rats [2]): 83 ± 19 µg/mg protein | SGOT activity (CFY male rats [2]): 232.0 ± 34 unit/liter
